Reference: patent publication US9115137B2, “2,3,4,5-tetrahydro-1H-pyrido[4,3-B]indole compounds and methods of use thereof” (priority 2008, dated 2015)

Legend:
[1] = molecular target: T1, human recombinant serotonin (5-Hydroxytryptamine) 5-HT5A receptor (Homo sapiens, UniProt P47898); assay: Serotonin 5-HT5A radioligand binding ([3H]LSD); conditions: compound at 1 μM; CHO-K1 cells; read-out: Serotonin (1 μM) 5-HT5A, percent inhibition of specific binding
T1 construct: expressed in transfected cells; host or cells: CHO-K1 cells
T1 sequence (P47898 whole entry): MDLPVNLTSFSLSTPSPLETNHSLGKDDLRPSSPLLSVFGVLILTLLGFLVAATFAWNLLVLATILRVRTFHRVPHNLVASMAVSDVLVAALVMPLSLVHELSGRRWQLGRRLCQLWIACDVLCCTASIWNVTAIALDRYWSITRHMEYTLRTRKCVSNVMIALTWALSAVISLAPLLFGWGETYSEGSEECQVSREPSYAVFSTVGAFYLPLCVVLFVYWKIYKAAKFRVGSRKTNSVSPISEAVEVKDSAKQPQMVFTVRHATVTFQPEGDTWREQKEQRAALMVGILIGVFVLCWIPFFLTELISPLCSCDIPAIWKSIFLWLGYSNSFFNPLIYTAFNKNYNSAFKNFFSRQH
Description: To evaluate in radioligand binding assays the activity of compounds of the invention, human recombinant serotonin (5-Hydroxytryptamine) 5-HT5A receptor expressed in Chinese hamster ovary (CHO-K1) cells (Rees, S. et al., FEBS Lett. 355:242, 1994) in a modified Tris-HCl buffer (50 mM Tris-HCl, pH 7.4, 10 mM MgCl2, 0.5 mM EDTA) was used. Compounds of the invention were incubated with 1.7 nM [^3H]Lysergic acid diethylamide (LSD) for 60 minutes at 37° C. Non-specific binding was estimated in the presence of 100 μM Serotonin (5-HT). Receptor proteins were filtered and washed, the filters were then counted to determine [^3H]LSD specifically bound. Compounds were screened at 1 μM or lower, using 1% DMSO as vehicle. Compounds of the invention were tested in this biochemical assay and percent inhibition of specific binding was determined. Biochemical assay results are presented as the percent inhibition of specific binding in Table 7.

[2] = molecular target: T2, human recombinant adrenergic α2C receptor (Homo sapiens, UniProt P18825); assay: Adrenergic α2C radioligand binding ([3H]MK-912); conditions: compound at 1 μM; insect Sf9 cells; read-out: Adrenergic (1 μM) α2C, percent inhibition of specific binding
T2 construct: expressed in transfected cells; host or cells: insect Sf9 cells
T2 sequence (P18825 1-462): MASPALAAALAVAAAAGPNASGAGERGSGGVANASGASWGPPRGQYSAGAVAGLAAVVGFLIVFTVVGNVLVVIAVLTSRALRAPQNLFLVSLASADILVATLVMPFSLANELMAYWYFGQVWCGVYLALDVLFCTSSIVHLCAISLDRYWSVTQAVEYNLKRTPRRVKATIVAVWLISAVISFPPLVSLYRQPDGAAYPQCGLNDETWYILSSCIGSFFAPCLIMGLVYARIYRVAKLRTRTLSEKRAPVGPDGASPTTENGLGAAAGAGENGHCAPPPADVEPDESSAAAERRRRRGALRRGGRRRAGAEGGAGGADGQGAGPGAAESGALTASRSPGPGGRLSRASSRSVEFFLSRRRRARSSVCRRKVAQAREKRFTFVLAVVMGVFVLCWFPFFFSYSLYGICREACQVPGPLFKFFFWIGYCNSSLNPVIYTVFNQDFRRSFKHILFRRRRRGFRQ
Description: To evaluate in radioligand binding assays the activity of compounds of the invention, human recombinant adrenergic α2C receptor expressed in insect Sf9 cells (Uhlen S et al. J Pharmacol Exp Ther. 271:1558, 1994) in a modified Tris-HCl buffer (50 mM Tris-HCl, pH 7.4, 12.5 mM MgCl2, 2 mM EDTA) was used. Compounds of the invention were incubated with 1 nM [^3H]MK-912 for 60 minutes at 25° C. Non-specific binding was estimated in the presence of 10 μM WB-4101. Receptor proteins were filtered and washed, the filters were then counted to determine [^3H]MK-912 specifically bound. Compounds were screened at 1 μM or lower, using 1% DMSO as vehicle. Compounds of the invention were tested in this biochemical assay and percent inhibition of specific binding was determined. Biochemical assay results are presented as the percent inhibition of specific binding in Table 6.

[3] = molecular target: T3, rat adrenergic α1B receptor (Rattus norvegicus, UniProt P15823); assay: Adrenergic α1B radioligand binding ([3H]Prozosin); conditions: compound at 1 μM; Wistar Rat liver; read-out: Adrenergic (1 μM) α1B, percent inhibition of specific binding
T3 construct: obtained from Wistar Rat liver; from tissue; host or cells: Wistar rat liver
T3 sequence (P15823 1-515): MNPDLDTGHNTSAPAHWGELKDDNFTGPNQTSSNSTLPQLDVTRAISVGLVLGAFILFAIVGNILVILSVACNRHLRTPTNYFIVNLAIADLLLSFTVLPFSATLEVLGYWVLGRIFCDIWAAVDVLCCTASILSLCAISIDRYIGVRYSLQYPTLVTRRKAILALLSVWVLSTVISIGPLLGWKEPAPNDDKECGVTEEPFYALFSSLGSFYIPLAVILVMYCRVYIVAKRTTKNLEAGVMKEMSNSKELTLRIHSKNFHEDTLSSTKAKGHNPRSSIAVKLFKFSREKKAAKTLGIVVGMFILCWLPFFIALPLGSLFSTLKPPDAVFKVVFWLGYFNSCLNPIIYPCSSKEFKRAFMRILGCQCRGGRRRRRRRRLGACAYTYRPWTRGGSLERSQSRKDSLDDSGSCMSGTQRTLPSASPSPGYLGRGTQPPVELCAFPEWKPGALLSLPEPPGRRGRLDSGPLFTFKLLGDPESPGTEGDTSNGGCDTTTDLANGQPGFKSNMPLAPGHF
Description: To evaluate in radioligand binding assays the activity of compounds of the invention, rat adrenergic α1B receptor obtained from Wistar Rat liver (Garcia-S'ainz, J. A. et al., Biochem. Biophys. Res. Commun. 186:760, 1992; Michel A. D. et al. Br. J. Pharmacol. 98:883, 1989) in a modified Tris-HCl buffer (50 mM Tris-HCl buffer, pH 7.4, 0.5 mM EDTA) was used. Compounds of the invention were incubated with 0.25 nM [^3H]Prozosin for 60 minutes at 25° C. Non-specific binding was estimated in the presence of 10 μM phentolamine. Receptor proteins were filtered and washed, the filters were then counted to determine [^3H]Prozosin specifically bound. Compounds were screened at 1 μM or lower, using 1% DMSO as vehicle. Compounds of the invention were tested in this biochemical assay and percent inhibition of specific binding was determined. Biochemical assay results are presented as the percent inhibition of specific binding in Table 6.

| Compound | inhibition at 1 µM [1] | inhibition at 1 µM [2] | inhibition at 1 µM [3] |
| --- | --- | --- | --- |
| CCOC(=O)CCn1c2c(c3cc(C)ccc31)CN(C)CC2 [CD1, ethyl 3-(1,2,3,4-tetrahydro-2,8-dimethylpyrido[4,3-b]indol-5-yl)propanoate] | 39% | 42% | 42% |
| Cc1ccc2c(c1)c1c(n2CC#N)CCN(C)C1 [CD61, 2-(1,2,3,4-tetrahydro-2,8-dimethylpyrido[4,3-b]indol-5-yl)acetonitrile] | 52% | 39% | 94% |
| C#CCn1c2c(c3cc(C)ccc31)CN(C)CC2 [CD73, 2,8-dimethyl-5-(prop-2-ynyl)-2,3,4,5-tetrahydro-1H-pyrido[4,3-b]indole] | 63% | 43% | 84% |
| CNC(=O)CCn1c2c(c3cc(C)ccc31)CN(C)CC2 [Compound 1, 3-(1,2,3,4-tetrahydro-2,8-dimethylpyrido[4,3-b]indol-5-yl)-N-methylpropanamide] | 4% | 4% | 13% |
| CCNC(=O)CCn1c2c(c3cc(C)ccc31)CN(C)CC2 [Compound 2, N-ethyl-3-(1,2,3,4-tetrahydro-2,8-dimethylpyrido[4,3-b]indol-5-yl)propanamide] | 14% | 2% | 22% |
| Cc1ccc2c(c1)c1c(n2CCC(=O)NC2CCCCC2)CCN(C)C1 [Compound 3, N-cyclohexyl-3-(1,2,3,4-tetrahydro-2,8-dimethylpyrido[4,3-b]indol-5-yl)propanamide] | 35% | 1% | 14% |
| Cc1ccc2c(c1)c1c(n2CCC(=O)NC2CCCC2)CCN(C)C1 [Compound 4, N-cyclopentyl-3-(1,2,3,4-tetrahydro-2,8-dimethylpyrido[4,3-b]indol-5-yl)propanamide] | 47% | 4% | 41% |
| CCOC(=O)CCCn1c2c(c3cc(C)ccc31)CN(C)CC2 [Compound 5, ethyl 4-(1,2,3,4-tetrahydro-2,8-dimethylpyrido[4,3-b]indol-5-yl)butanoate] | 62% | 50% | 77% |
| CCNC(=O)CCCn1c2c(c3cc(C)ccc31)CN(C)CC2 [Compound 6, N-ethyl-4-(1,2,3,4-tetrahydro-2,8-dimethylpyrido[4,3-b]indol-5-yl)butanamide] | 25% | 48% | 31% |
| Cc1ccc2c(c1)c1c(n2CCNC(=O)OCC(Cl)(Cl)Cl)CCN(C)C1 [Compound 8, 2,2,2-trichloroethyl 2-(1,2,3,4-tetrahydro-2,8-dimethylpyrido[4,3-b]indol-5-yl)ethylcarbamate] | 60% | 22% | 80% |
| Cc1ccc2c(c1)c1c(n2CCNC(=O)C2CCCNC2)CCN(C)C1 (stereo not drawn) [Compound 9, N-(2-(1,2,3,4-tetrahydro-2,8-dimethylpyrido[4,3-b]indol-5-yl)ethyl)piperidine-3-carboxamide] | -6% | -8% | 21% |
